The record followed here is US8933132B2, “Tricyclic substituted benzenesulfonamide piperazine derivatives as CAV2.2 calcium channel blockers” (Convergence Pharmaceuticals Limited, priority 2011, dated 2015).

For this assay, the target named is T1, hCav2.2 (Homo sapiens, UniProt Q00975).
T1 construct: expressed in transfected cells; plasmids pCIN5-hCav2.2, pCIH-hCav β3, pCIP-α2δ1
T1 sequence (Q00975 whole entry): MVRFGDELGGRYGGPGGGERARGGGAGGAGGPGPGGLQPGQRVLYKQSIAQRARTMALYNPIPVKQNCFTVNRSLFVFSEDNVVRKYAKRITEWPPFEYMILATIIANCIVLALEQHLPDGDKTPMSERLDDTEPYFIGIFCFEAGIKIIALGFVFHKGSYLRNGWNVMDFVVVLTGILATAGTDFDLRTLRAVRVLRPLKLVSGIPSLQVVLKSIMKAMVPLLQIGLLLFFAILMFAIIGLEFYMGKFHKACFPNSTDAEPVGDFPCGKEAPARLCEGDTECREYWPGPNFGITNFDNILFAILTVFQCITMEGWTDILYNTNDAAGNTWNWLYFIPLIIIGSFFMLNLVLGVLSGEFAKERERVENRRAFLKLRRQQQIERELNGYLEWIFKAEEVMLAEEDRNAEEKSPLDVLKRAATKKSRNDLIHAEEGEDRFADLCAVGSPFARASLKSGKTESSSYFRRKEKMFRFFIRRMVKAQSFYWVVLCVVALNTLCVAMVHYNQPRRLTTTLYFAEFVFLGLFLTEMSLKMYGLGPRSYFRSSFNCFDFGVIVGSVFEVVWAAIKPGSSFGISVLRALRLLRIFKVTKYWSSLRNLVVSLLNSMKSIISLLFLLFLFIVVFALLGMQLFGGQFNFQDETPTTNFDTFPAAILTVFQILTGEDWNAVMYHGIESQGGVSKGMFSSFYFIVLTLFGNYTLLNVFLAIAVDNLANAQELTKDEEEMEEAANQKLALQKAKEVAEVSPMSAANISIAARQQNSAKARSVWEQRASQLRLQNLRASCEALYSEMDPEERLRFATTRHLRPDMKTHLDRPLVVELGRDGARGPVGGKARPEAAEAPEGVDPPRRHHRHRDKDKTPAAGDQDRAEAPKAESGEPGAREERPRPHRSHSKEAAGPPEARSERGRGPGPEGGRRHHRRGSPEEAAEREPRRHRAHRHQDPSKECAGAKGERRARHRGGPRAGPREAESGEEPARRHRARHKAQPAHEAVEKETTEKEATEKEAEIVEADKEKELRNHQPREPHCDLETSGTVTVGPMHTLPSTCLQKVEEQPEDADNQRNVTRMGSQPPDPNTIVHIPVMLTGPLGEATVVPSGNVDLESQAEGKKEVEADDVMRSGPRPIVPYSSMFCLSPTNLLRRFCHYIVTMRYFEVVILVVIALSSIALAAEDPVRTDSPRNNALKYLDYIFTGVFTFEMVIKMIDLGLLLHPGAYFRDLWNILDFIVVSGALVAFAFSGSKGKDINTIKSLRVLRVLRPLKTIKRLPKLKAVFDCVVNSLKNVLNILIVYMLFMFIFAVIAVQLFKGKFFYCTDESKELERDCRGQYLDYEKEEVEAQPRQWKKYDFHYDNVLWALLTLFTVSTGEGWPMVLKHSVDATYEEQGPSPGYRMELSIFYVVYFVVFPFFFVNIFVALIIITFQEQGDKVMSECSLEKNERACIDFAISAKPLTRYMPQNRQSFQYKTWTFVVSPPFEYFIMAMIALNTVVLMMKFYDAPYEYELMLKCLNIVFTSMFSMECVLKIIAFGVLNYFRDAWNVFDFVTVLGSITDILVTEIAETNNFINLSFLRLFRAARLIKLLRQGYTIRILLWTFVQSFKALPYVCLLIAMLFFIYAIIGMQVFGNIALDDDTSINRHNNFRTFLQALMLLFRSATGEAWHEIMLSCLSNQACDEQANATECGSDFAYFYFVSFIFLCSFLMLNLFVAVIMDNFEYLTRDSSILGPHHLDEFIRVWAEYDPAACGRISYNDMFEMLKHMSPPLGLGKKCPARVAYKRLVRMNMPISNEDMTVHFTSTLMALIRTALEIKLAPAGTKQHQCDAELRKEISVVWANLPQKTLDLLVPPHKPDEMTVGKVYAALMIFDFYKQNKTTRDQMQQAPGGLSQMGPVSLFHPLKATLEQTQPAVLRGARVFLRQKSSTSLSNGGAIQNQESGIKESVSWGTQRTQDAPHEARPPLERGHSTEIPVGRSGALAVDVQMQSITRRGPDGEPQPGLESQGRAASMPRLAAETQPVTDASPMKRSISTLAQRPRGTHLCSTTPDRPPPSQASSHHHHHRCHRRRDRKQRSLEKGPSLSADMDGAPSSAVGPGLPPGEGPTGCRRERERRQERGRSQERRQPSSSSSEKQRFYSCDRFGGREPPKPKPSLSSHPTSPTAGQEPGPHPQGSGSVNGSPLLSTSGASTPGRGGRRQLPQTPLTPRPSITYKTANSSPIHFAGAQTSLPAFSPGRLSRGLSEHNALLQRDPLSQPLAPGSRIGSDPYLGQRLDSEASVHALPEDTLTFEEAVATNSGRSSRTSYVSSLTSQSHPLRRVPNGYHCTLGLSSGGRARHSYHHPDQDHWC
Kind of assay: hCav2.2 assay (IonWorks planar array electrophysiology, stable HEK293 cell line). It is filed as cell-based. The settings on record: inhibition of current elicited by the 1st depolarising pulse by 50%; HEK293 cells expressing human Cav2.2 α1B/β3/α2δ1; read-out: tonic pIC50 (converted). On the procedure: Compounds as defined in the first to third aspects may be tested for in vitro biological activity in the hCav2.2 assay in accordance with the following studies:
Stable cell lines expressing the human Cav2.2 α (α1B) subunit, along with the human β3 and α2δ1 auxiliary subunits were created following sequential transfection and selection of human embryonic kidney (HEK293) cells. HEK293 cells were cultured in Dulbecco's modified Eagles media/F12 media (Invitrogen, Cat #041-95750V) containing 10% fetal bovine serum, with added L-glutamine (2 mM; Invitrogen, Cat #25030-024) and non-essential amino acids (5%; Invitrogen, Cat #11140-035). Initially HEK293 cells were transfected with two plasmid vectors for expression of the hCav2.2 α subunit (pCIN5-hCav2.2 which carries a neomycin resistance marker) and the hCav β3 subunit (pCIH-hCav β3 which carries a hygromycin resistance marker). Clonal cell lines were isolated following selection in media supplemented with 0.4 mg ml^−1 Geneticin G418 (Invitrogen, Cat #10131-027) and 0.1 mg ml^−1 hygromycin (Invitrogen, Cat #10687-010). These clonal cell lines were assessed for Cav2.2 α/β3-mediated current expression using the IonWorks planar array electrophysiology technology (described below). A clonal line was identified that gave a reasonable level of functional Cav2.2 α/β3 current expression. This cell line was transfected with a plasmid vector for expression of the human α2δ1 subunit (pCIP-α2δ1 which carries a puromycin resistance marker) and clonal cell lines isolated following selection in media containing 0.62 μg ml^−1 puromycin (Sigma, Cat # P-7255), in addition to 0.4 mg ml^−1 Geneticin G418 and 0.1 mg ml^−1 hygromycin. […]
Currents were recorded at room temperature (21-23° C.) using the IonWorks planar array electrophysiology technology (Molecular Devices Corp.). […] In all experiments, the test pulse protocol was performed in the absence (pre-read) and presence (post-read) of a compound. Pre- and post-reads were separated by a compound addition followed by a 3-3.5 min incubation. […]
On to `Cc1ccc2c(n1)C1CN(S(=O)(=O)c3ccc(OC(C)C)cc3)CCN1C2=O` (stereo not drawn) [Compound 2, 2-Methyl-9-({4-[(1-methylethyl)oxy]phenyl}sulfonyl)-8,9,10,10a-tetrahydropyrido[2′,3′:3,4]pyrrolo-[1,2-a]pyrazin-5(7H)-one], for which the IC50 was 100 µM.

As for `Cc1ccc2c(n1)C1CN(S(=O)(=O)c3ccc(C(F)(F)F)cc3C)CCN1C2=O` (stereo not drawn) [Compound 18, 2-Methyl-9-{[2-methyl-4-(trifluoromethyl)phenyl]sulfonyl}-8,9,10,10a-tetrahydropyrido[2′,3′:3,4]pyrrolo-[1,2-a]pyrazin-5(7H)-one], the IC50 was ≤ 31.6 µM.

In the case of `Cc1cc(C(F)(F)F)ccc1S(=O)(=O)N1CCN2C(=O)c3cccnc3C2C1` (single isomer, unassigned) [24/25 (slower running enantiomer)], the IC50 is ≤ 31.6 µM.
